Tested on: Rat Model of Corneal Injury
Experiment: Rat model of corneal injury (corneal epithelial wound closure)
Type: in vivo
Settings: topical ocular 5 μl every 2 hrs for first 8 hrs, female Lewis rats, compared with positive control 0.4% HA; for normalized number of completely healed eyes (Healed 24 hours n=10): number/10 eyes
Description: Female Lewis rats (175-200 g) were anesthetized with a xylazine/ketamine cocktail (5 mg/kg and 50 mg/kg respectively). A 3 mm diameter circle was superficially demarcated on the central cornea using a 3 mm trephine. Using a corneal rust ring remover (AlgerbrushΠ Alger Co.) tipped with a 1 mm steel burr; the corneal epithelium was removed to the basement membrane within the established 3 mm boundary Immediately following epithelial removal, the corneas were topically stained with 2% sodium fluorescein (Alcon), washed with balanced saline (BSS) and Time 0 hrs images acquired. After 24 hrs, animals were again anesthetized and Time 24 hrs images were acquired.
Immediately after acquisition of Time 0 images, test articles (5 μl) were topically administered to the ocular surface. Animals received topical administration every 2 hrs for the first 8 hrs of the 24 hrs study time. A 0.4% solution of Hyaluronic Acid (HA) was prepared in phosphate-buffered saline (PBS). Compounds 1 and 5 were prepared in PBS and stored at −70° C. until use. During dosing, compounds were stored at 4° C.
Anesthetized rats (Time 0: xylazine/ketamine; Time 24 hrs: 5% isoflurane gas). The area of the cornea devoid of epithelial cells was stained by topical application of a 2% sodium fluorescein solution (Alcon), followed 10 seconds later with a thorough rinsing with BSS. Images from stained eyes were collected with a Canon digital camera fitted with a macro and close-up lens such that the cornea filled almost the entire image field. A continuous and flash illumination was provided with a Novoflex Cold Light Source Macrolight Plus illuminator. The continuous source was used to focus the eye with the aid of the video output of the Canon camera. A flash lamp illuminator and ring light attached to the camera lens system provided a synchronized and uniform illumination of the corneal surface. Eyes were illuminated and images were captured through a set of filters designed for fluorescein excitation (482±35 nm) and emission (536±40 nm).
Two image files were recorded for each exposure, a JPG-format RGB (red-green-blue) file used for image display and a Canon Raw file containing the raw sensor data. The raw data was extracted to a 16-bit portable greymap file that was subsequently processed with a demosaic function to make an image of only the green pixels containing the fluorescein information. A circular region of interest (ROI) was centered on the cornea and the automated analysis was performed using RatOSIWound v 2.0 software (Alcon). Automated analysis calculated the total fluorescein positive area of a single large spot indicative of the epithelial wound. The % closure at 24 hours (indicated as “% Closure 24 hours” on the ordinate axis of the graphs in FIGS. 1 and 3) was calculated as
while the number of eyes that were totally healed (that is, had no detectable defect; indicated as “Healed 24 hours n=10” on the ordinate axis of the graphs in FIGS. 2 and 4), normalized as number/10 eyes, was also determined
Data were analyzed using an ANOVA with a Dunnett post-hoc test at a 95% confidence interval.

SMILES	% wound closure (% Closure 24 hours) (0.5% w/v dose in PBS)	normalized number of completely healed eyes (Healed 24 hours n=10) (0.5% w/v dose in PBS)	% wound closure (% Closure 24 hours) (1% w/v dose in PBS)	normalized number of completely healed eyes (Healed 24 hours n=10) (1% w/v dose in PBS)
COC(=O)CCC[C@H](O)[C@H](O)CO [compound 1]	as effective as the positive control 0.4% HA	as effective as the positive control 0.4% HA	as effective as the positive control 0.4% HA	as effective as the positive control 0.4% HA
O=C([O-])CCC[C@H](O)[C@H](O)CO.[Li+] [compound 5]	–	–	as effective as the positive control 0.4% HA	as effective as the positive control 0.4% HA
